Measured values published in patent US8557804B2, “Nicotinic receptor agonists for the treatment of inflammatory diseases” (priority 2002, dated 2013).
Where “and” joins values, the source holds several entries; their conditions need not be identical. Identical values can stand only once. Entries after “also recorded” stand apart in the source; their conditions may differ. Counter-ions that a name gives are not always drawn. Like-named read-outs stand apart in the source and are kept apart here.

Experiments:
[1] = test system: TNF release by human blood monocytes; test: cells; assay type: cell-based
Description: Human monocytes were isolated from the blood of asthmatic patients by Ficoll-paque density gradient, let to adhere to tissue culture plates and stimulated with LPS (100 ng/ml) for 18 hours at 37° C. with or without increasing concentrations of nicotine. The release of TNF, a potent pro-inflammatory mediator, was measured in the cell culture supernatant by the ELISA method. Results are expressed as a percentage release from LPS-stimulated untreated cells (FIG. 28).
Tumor necrosis factor (TNF) is a mediator released in inflammatory states.
Human blood monocytes were isolated by Ficoll-paque density gradient, let to adhere to tissue culture plates and stimulated with LPS (100 ng/ml) for 18 hours at 37° C. with or without increasing concentrations of nicotine analogues.

human bronchial rings = test: Isometric study on human bronchial rings pre-contracted with metacholine; conditions: cumulative doses
Description: (§1) As described previously, tracheal or bronchial rings were mounted isometrically to force transducers in organ baths containing Krebs bicarbonate solution at 37° C. and bubbled with 95% O2-5% CO2, pre-contracted with submaximal concentration of metacholine cumulative doses of ASM-002 added. Changes of tension are recorded. Results are expressed as a percentage of maximal contraction for mouse (FIG. 34, p=0.002), dog (FIG. 35, p=0.004) and human (FIG. 36)

[2] = test system: mouse tracheal airway smooth muscle; test: Isometric study on isolated mouse tracheas pre-contracted with metacholine; conditions: cumulative doses, p=0.002
Description: Tracheal rings were mounted isometrically to force transducers in organ baths containing Krebs bicarbonate solution at 37° C. and bubbled with 95% O2-5% CO2, pre-contracted with submaximal concentration of metacholine (10^−5) and cumulative doses of the analogs were added to the baths. Changes of tension are recorded. Results are expressed as a percentage of maximal contraction (FIG. 29).
as §1

[3] = test system: LTC4 release by blood eosinophils; test: LTC4 production by PAF-stimulated blood eosinophils (enzyme immunoassay); assay type: cell-based, human; conditions: for LTC4: eosinophils pre-incubated 18 hours with analog, PAF stimulated, untreated 1725.80
Description: Blood eosinophils, the most increased inflammatory cells in asthma, were isolated by negative selection using bead-conjugated anti-CD16 monoclonal antibody and magnetic activating cell sorting. Cells were pre-Incubated for 18 hours with the various DMPP analogs and then stimulated with 1 µM platelet-activating factor (PAF) to produce LTC4 which was measured by enzyme immunoassay.
Human blood eosinophils were isolated from blood of asthmatic patients, stimulated in vitro with platelet activating factor (PAF) to produce large amounts of LTC4, and treated or not with 80 μM ASM-002.

[4] = test system: lung resistance in hyperresponsive dogs; test: Dog model of lung hyper-responsiveness to metacholine; assay type: in vivo; conditions: 12 hyperresponsive dogs
Description: (§2) In this model 12 dogs naturally sensitized to the roundworm Ascaris suum were used in a cross-over study design. Four groups of 3 dogs were randomly formed, exposed to the allergen, and each animal was left either untreated or received alternatively, ASM-002 (4 mg/kg 2× day in the food), or prednisone (1 mg/kg 1× day in the food), the most commonly used corticosteroid drug used to treat inflammation in asthma.
Hyper-responsiveness is described as the capacity of the lung to react (to increase lung resistance) to a non-specific external stimuli like metacholine or to allergens A hyper-responsive allergen-sensitized dog (asthmatic) will react to lower concentrations of metacholine compared to a non allergic dog. Similarly, improvement in lung hyper-responsiveness is shown by an increase in metacholine concentrations necessary to induce the same level of lung resistance.
Increasing concentrations of metacholine were administered with or without treatment with ASM-002 or Prednisone™ and lung resistance recorded.

[5] = test system: lung resistance after metacholine challenge; test: Airway hyper-reactivity / lung resistance to metacholine in asthmatic mice (FlexiVENT); assay type: in vivo; conditions: ASM-002 4 mg/kg intra-nasal 3 days and 10 minutes prior to challenge; Salbutamol 10 minutes before
Description: Airway hyper-reactivity (AHR) in response to metacholine was measured in anesthetized, tracheotomized, ventilated mice using a computer-controlled ventilator (FlexiVENT™).
Increasing doses of metacholine (0 mg/kg-32.5 mg/kg) were administered through the jugular vein.
Lung response to a broncho-constrictive agent, metacholine, was measured by a Flexi-vent® apparatus. Ovalbumin-sensitized animals were treated intra-nasally with ASM-002 (4 mg/kg) during 3 days and 10 minutes prior to the metacholine challenge and compared to untreated OVA-sensitized animals. A negative control group of un-sensitized animals and a positive control group that received Salbutamol (Ventolin) 10 minutes before the metacholine challenge were also included.

[6] = test system: lung inflammation in dogs sensitized to Ascaris suum; test: Dog asthma model (Ascaris suum), cellular inflammation in bronchoalveolar lavages; assay type: in vivo; conditions: ASM-002 8 mg/kg (4 mg/kg 2× day in the food); prednisone 1 mg/kg 1× day; n=12
Description: as §2
Cellular inflammation was evaluated in the bronchoalveolar lavages.

dog bronchial rings = test: Isometric study on dog bronchial rings pre-contracted with metacholine; conditions: cumulative doses, p=0.004
Description: as §1

[7] = test system: allergic inflammation of the lungs in ovalbumin-sensitized mice; test: Ovalbumin-sensitized mouse asthma model, BAL cell counts; assay type: in vivo, Balb/c mice; conditions: Mus musculus, 72 h; intra-nasal 0.5 to 4 mg/kg/d for 3 days, n=8; read-out: ED50, cellular inflammation in the lungs (BAL cells)
Description: Groups of Balb/c mice were sensitized by intra-peritoneal injection of 20 μg OVA protein (chicken egg albumin; Sigma-Aldrich) emulsified in 2 mg aluminum hydroxide in PBS. After 4 weeks, challenge doses of 1.5%/50 μl OVA were administered intranasally. The challenge was performed daily for 3 consecutive days and then the mice assessed for allergic inflammation of the lungs 24 h after the last aerosol exposure. Groups of mice were treated with various concentrations of DMPP during the challenge period. Broncho-alveolar lavage (BAL) was performed and the fluid centrifuged at 400 g to separate cells from liquid.
Ovalbumin-sensitized mice (n=8) were challenged with the allergen and simultaneously treated intra-nasally with increasing concentrations of ASM-002 (0.5 to 4 mg/kg/d) for 3 days. The number of cells recovered by broncho-alveolar lavage was used as a measure of lung inflammation.

blood eosinophils = test: Blood eosinophil transmigration through an artificial basement membrane (Matrigel coated chemotaxis chamber); assay type: cell-based
Description: Infiltration of eosinophils and other inflammatory cells into lung tissues is an important feature of asthma and the cause of airway inflammation and hyper-responsiveness. The passage of inflammatory cells from the circulation to the lung involves migration through the vascular endothelium, the basement membrane, and extra-cellular matrix components. Inflammatory cells cross the basement membrane by producing proteinases. In these preliminary in vitro experiments, the effects of various nicotinic agonists on the migration of purified blood eosinophils through an artificial basement membrane (Matrigel® coated chemotaxis chamber) were investigated. […] Results are expressed as a percentage of inhibition (agonists-treated cells) compared to the control condition without the agonists.

[8] = reference (40); cited from earlier work
[9] = test system: collagen 1A mRNA expression by normal human lung fibroblasts; test: Collagen A1 gene expression by RT-PCR in primary normal lung fibroblasts; assay type: cell-based
Description: Asthma is characterized by airway structural changes, including sub-epithelial collagen deposition, that may be a cause for the chronicity of the disease. An imbalance between collagen synthesis and its degradation by fibroblasts may be involved in this process (56). In preliminary experiments, we investigated the effects of nicotinic agonists on collagen A1 synthesis produced by primary normal fibroblasts. Collagen A1 gene expression was evaluated by RT-PCR.
The results are expressed percentage gene expression in agonists treated cells compared to non-treated cells.

[10] = test system: SR-induced inflammation in mice; test: Short term SR-induced acute lung inflammation in mice, BAL cells; assay type: in vivo
Description: The Intranasal instillation of Saccharopolyspora rectivirgula (SR) antigens, the causative agent for farmer's lung, to mice, induces a prominent inflammatory response in the lung. Neutrophils are the first inflammatory cells recruited at the site of inflammation.

IFN-γ mRNA = conditions: pulmonary macrophages and lymphocytes from nicotine treated animals, anti-CD3 + IL-2
IL-4 mRNA expression = IL-4 mRNA expression induced by a 24 h LPS stimulation; assay type: cell-based; conditions: LPS stimulation 24 h, 40 μM
Description: The effect of agonist treatment on mRNA expression of IL-4, a cytokine that is well known to be involved in the development of asthma, was also tested (53). […] Cells were treated with different doses (40 to 160 μM for both nicotine and DMPP).

[11] = test system: IL-10 mRNA expression in AMJ2-C11 cells; test: IL-10 mRNA expression by RT-PCR in AMJ2-C11 cells; assay type: cell-based, mouse
Description: (§3) The effect of nicotine or DMPP treatment on AMJ2-C11 cells was tested on TNF-α, IL-10 mRNA expression by RT-PCR. These cytokines are involved in the development of pulmonary inflammatory diseases such as HP, asthma and sarcoidosis (52-55). […] Reference is made to FIG. 3 where results are expressed as a % of expression, 100% being attributed to the LPS alone group. The intensity of the band was obtained by dividing the intensity of the TNF-α band by that of β-actin. […] Reference is made to FIG. 4 where results are expressed as described in FIG. 5.

[12] = test system: CD86 expression on alveolar macrophages; test: CD86 expression in SR-stimulated BAL cells of a normal patient; assay type: cell-based, human; conditions: SR-stimulated alveolar macrophages
Description: A broncho-alveolar lavage was performed on a normal patient, and alveolar macrophages were isolated.

[13] = test system: CD80 expression on AMJ2-C11 cells; test: B7 (CD80) molecule expression on AMJ2-C11 cells; assay type: cell-based, mouse; conditions: LPS (0.1 μg/ml) stimulated, 40 μM for 48 h; LPS alone 38%
Description: The effects of nicotine and DMPP on B7 (CD80) molecule expression were tested in vitro. AMJ2-C11 cells (mouse alveolar macrophages, from the ATCC) were incubated with 40 μM nicotine or DMPP and stimulated with LPS (0.1 μg/ml) or SR antigen (50 μg/ml) for 48 hours.

[14] = test system: TNF-α mRNA expression in AMJ2-C11 cells; test: TNF-α mRNA expression by RT-PCR in AMJ2-C11 cells; assay type: cell-based, mouse
Description: as §3

[15] = test system: Saccharopolyspora rectivirgula (SR) antigen-induced HP in mice; conditions: IP nicotine 0.5 to 2.0 mg/kg twice a day
[16] = purified blood eosinophils, Matrigel

## C[N+]1(C)CCCN(c2ccccc2)CC1 (as salt: iodide) [ASM-002, 1,1-dimethyl-4-phenylhomopiperazinium iodide]
other
  melting point: 158 to 160 °C

## C[N+]1(C)CCCN(c2ccccc2)CC1 [ASM-002, 1,1-dimethyl-4-phenylhomopiperazinium iodide]
[1]; 40 μM, mean of 5 subjects
  TNF release: inhibits TNF release
[1]; Monocyte, LPS-stimulated human blood monocytes, n=6, read-out: EC50, inhibition of TNF release
  EC50: 3 µM
Human bronchial rings
  relaxing effect on pre-contracted human bronchi: relaxing effect
[2]
  relaxing effect on pre-contracted mice tracheas: relaxing effect
[3]; 80 μM, PAF, eosinophils of asthmatic patients, 6 patients, p=0.0007
  LTC4 production: significant inhibition
[3]
  LTC4: 246.40 pg/mL
[4]
  dogs with decreased lung resistance / improved hyper-responsiveness: 7 out of 12
[5]
  lung resistance induced by metacholine compared to untreated OVA-sensitized mice: significant reduction (return to baseline levels)
[6]
  cellular inflammation in the lungs of asthmatic dogs: inhibits significantly
Dog bronchial rings
  relaxing effect on pre-contracted dog bronchi: relaxing effect
[7]
  ED50: 0.71 mg/kg

## CC[N+]1(C)CCN(c2ccccc2)CC1 [ASM-003]
[3]
  LTC4: 613.90 pg/mL

## CC[N+]1(CC)CCN(c2ccccc2)CC1 [ASM-005]
[1]; monocytes of asthmatic patients, LPS 100 ng/ml 18 h, n=8 to 10
  effect on TNF release: Except for ASM-005, all analogs tested had an inhibitory effect

## O=c1cccc2n1C[C@@H]1CNC[C@H]2C1 [cytisine]
Blood eosinophils
  inhibition of eosinophil transmigration: reduce blood eosinophil transmigration

## Clc1ccc(C2CC3CCC2N3)cn1 (stereo not drawn) [epibatidine, Epibatidine]
[8]
  analgesic potential, times that of morphine: two hundred
[9]; primary normal fibroblasts, RT-PCR
  collagen A1 gene expression: inhibitory effect is also observed
[10]; mouse, in vivo
  effect on SR-induced inflammation (BAL cells): marked inhibitory effect; also recorded: significant inhibitory effect
Blood eosinophils; [16]
  inhibition of eosinophil transmigration: reduce blood eosinophil transmigration

## CNC1(C)C2CCC(C2)C1(C)C (stereo not drawn) [mecamylamine]
Blood eosinophils; together with DMPP
  effect of the antagonist on the DMPP inhibition of eosinophil transmigration: reverses the effect of DMPP

## CN1CCCC1c1cccnc1 (stereo not drawn) [nicotine, Nicotine]
[9]; 1 and 10 μM
  collagen A1 gene expression: slight inhibitory effect
[9]; higher concentrations (above 10 μM)
  collagen A1 gene expression: no effects
IFN-γ mRNA
  expression of IFN-γ mRNA vs cells from non-treated animals: significantly lower expression
IL-4 mRNA expression
  reduction of IL-4 mRNA expression: ≤ 90%
IL-4 mRNA expression; listed as Nicotine
  reduction of IL-4 mRNA expression: up to 92%
[10]; intra-nasal every 6 h, 24 h after SR, DMPP 0.5 mg/kg, nicotine 0.5 mg/kg, epibatidine 2 μg/kg
  effect on SR-induced inflammation (BAL cells): marked inhibitory effect; also recorded: significant inhibitory effect
[11]; LPS stimulated 24 h, 40 μM
  reduction of IL-10 mRNA expression: 88% and 87%
[11]; SR-stimulated 24 h, 160 μM
  drop of IL-10 mRNA expression: 60%
[12]
  expression of CD86 relative to non-treated cells: about half of the expression
Blood eosinophils; [16]
  inhibition of eosinophil transmigration: reduce blood eosinophil transmigration
[13]
  percentage of expression of CD80: 20%
[14]; LPS stimulated 24 h, 40 μM
  reduction of TNF-α mRNA expression: 98%
[14]; SR-stimulated 24 h, only the 160 μM dose (80 and 160 μM tested)
  effect on TNF-α mRNA expression: had an effect on mRNA expression
[15]
  lymphocyte population in BAL: decrease in the lymphocyte population
  number of total cells in bronchoalveolar lavage (BAL): significantly reduced

## C[C@]12C=CC(=O)C=C1CC[C@@H]1[C@@H]2C(=O)C[C@@]2(C)[C@H]1CC[C@]2(O)C(=O)CO [prednisone]
[4]
  dogs with decreased lung resistance / improved hyper-responsiveness: None of the 12 dogs
